Data taken from PubChem BioAssay (NCI).
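Five compound concentrations were applied to cells in 96-well plates for 48 hours; endpoints were derived by simple linear interpolation of the resulting dose-response curve. TGI marks complete inhibition of growth.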

What was measured:
Assay in all cases: NCI tumour cell line growth inhibition, 48 h
786-0 renal = test system: 786-0 renal
A498 renal = test system: A498 renal
A549 NSCLC = test system: A549 NSCLC
ACHN renal = test system: ACHN renal
BT-549 breast = test system: BT-549 breast
CAKI-1 renal = test system: CAKI-1 renal
CCRF-CEM leukemia = test system: CCRF-CEM leukemia
COLO 205 colon = test system: COLO 205 colon
DU-145 prostate = test system: DU-145 prostate
EKVX NSCLC = test system: EKVX NSCLC
HCC-2998 colon = test system: HCC-2998 colon
HCT-116 colon = test system: HCT-116 colon
HCT-15 colon = test system: HCT-15 colon
HL-60(TB) leukemia = test system: HL-60(TB) leukemia
HOP-62 NSCLC = test system: HOP-62 NSCLC
HOP-92 NSCLC = test system: HOP-92 NSCLC
HS 578T breast = test system: HS 578T breast
HT29 colon = test system: HT29 colon
IGROV1 ovarian = test system: IGROV1 ovarian
K-562 leukemia = test system: K-562 leukemia
KM12 colon = test system: KM12 colon
LOX IMVI melanoma = test system: LOX IMVI melanoma
M14 melanoma = test system: M14 melanoma
MCF7 breast = test system: MCF7 breast
MDA-MB-231 breast = test system: MDA-MB-231 breast
MDA-MB-435 = test system: MDA-MB-435
MDA-N = test system: MDA-N
MOLT-4 leukemia = test system: MOLT-4 leukemia
NCI-H226 lung = test system: NCI-H226 lung
NCI-H23 lung = test system: NCI-H23 lung
NCI-H460 lung = test system: NCI-H460 lung
NCI-H522 lung = test system: NCI-H522 lung
NCI/ADR-RES ovarian = test system: NCI/ADR-RES ovarian
OVCAR-3 ovarian = test system: OVCAR-3 ovarian
OVCAR-4 ovarian = test system: OVCAR-4 ovarian
OVCAR-5 ovarian = test system: OVCAR-5 ovarian
OVCAR-8 ovarian = test system: OVCAR-8 ovarian
PC-3 prostate = test system: PC-3 prostate
RXF 393 renal = test system: RXF 393 renal
SF-268 CNS = test system: SF-268 CNS
SF-295 CNS = test system: SF-295 CNS
SF-539 CNS = test system: SF-539 CNS
SK-MEL-2 melanoma = test system: SK-MEL-2 melanoma
SK-MEL-28 melanoma = test system: SK-MEL-28 melanoma
SK-MEL-5 melanoma = test system: SK-MEL-5 melanoma
SK-OV-3 ovarian = test system: SK-OV-3 ovarian
SN12C renal = test system: SN12C renal
SNB-19 CNS = test system: SNB-19 CNS
SR leukemia = test system: SR leukemia
SW-620 colon = test system: SW-620 colon
T-47D breast = test system: T-47D breast
TK-10 renal = test system: TK-10 renal
U251 CNS = test system: U251 CNS
UACC-257 melanoma = test system: UACC-257 melanoma
UACC-62 melanoma = test system: UACC-62 melanoma
UO-31 renal = test system: UO-31 renal
RPMI-8226 leukemia = test system: RPMI-8226 leukemia
SNB-75 CNS = test system: SNB-75 CNS

Measured: TGI

CN1C(NN)=NS(=O)(=O)c2ccccc21
not listed: RPMI-8226 leukemia | SNB-75 CNS
> 100 µM: all other assays above

NC(=O)NN=C1C[C@H]2CCCC[C@H]2C1
not listed: CCRF-CEM leukemia | NCI-H23 lung | RXF 393 renal
> 100 µM: all other assays above
